Assay results as given in patent US20100016244A1, “D-GLUCOPYRANOSE 1-[3,5-BIS (1,1-DIMETHYLETHY)-4-HYDROXYBENZOATE] AND ITS DERIVATIVES, PREPARATION AND USE THEREOF” (priority 2006, published 2010).
≈ marks a conversion by molar mass, not a printed value.

What was measured:
[1] = system: HIV; conditions: cited from earlier work
[2] = Solubility in water (tests 1-3); conditions: for pH: after stirring for 48 H at 23° C. in water
[3] = system: VHS (Herpes Simplex Virus); conditions: from FR 2 668 931; cited from earlier work
[4] = system: HIV
[5] = system: enveloped-viruses; test: Active concentration on enveloped-viruses; conditions: BHT versus RDW 031
[6] = system: polio virus
[7] = system: VHS (Herpes Simplex Virus); test: Virucidal activity on VHS (Herpes Simplex Virus), decrease in log by concentration and contact time; conditions: for Decrease expressed in log: test n° 4
Description: Results of the tests conducted in the laboratory of Prof. Chiron, (Faculty of Pharmacy of Tours): [table] hypothesis: 10 mg/8 ml (solubility check) Stock-solution: 33.47 mg/24.10 ml (x 1.11 C) i.e.: 11.11 mg/8 ml [table]

[8] = physchem; conditions: water, thermodynamic from solid
[9] = Studies on rats (progeny, mutagenic effect)

Which “decrease of HIV's infectivity” value [1] does the source give for CC(C)(C)c1cc(C(=O)OCCOCCOCCOCCOCCOCCOCCOCCO)cc(C(C)(C)C)c1O [AVF1, 3.5-di-tert-butyl-4-hydroxybenzoate octa-oxy-ethylene glycol] here?
The value was 7 log.

For CC(C)(C)c1cc(C(=O)O)cc(C(C)(C)C)c1O [BG4, 3,5-di-t-butyl-4-hydroxybenoic acid], which “Solubility 12 H at 23° C.” value ([2]; Test No 2, water, RDW031 batch RV 34) is on record?
The value was “insoluble”.

And the “Solubility after stirring for 48 H at 23° C.” value ([2]; Test no 3, 1 g + 100 ml H2O, RDW031 batch RV 41, BG4 from SIGMA-ALDRICH)?
Its value is 0.13 g/L.

And the pH ([2]; Test no 3)?
Its pH is “pH = 5.6”.

What about the “Solubilité ½ H à 23° c.” value ([2]; water, ½ H at 23° C.) of the same compound?
Its value is “No measurable”.

And the “Solubility ½ H at 100° C.” value ([2]; water, ½ H at 100° C., no desolubilization at room temperature)?
Its value is 0.84 g/litre (no.

And the “concentration required for effectiveness on VHS” value [3]?
The value was 0.5%.

And the “reduction of the virulence of a HIV culture” value [4]?
Its value is 5 log.

Which “molar active concentration relative to RDW 031” value [5] does the source give for Cc1cc(C(C)(C)C)c(O)c(C(C)(C)C)c1 [BHT, butylhydroxytoluene] here?
Its value is 100 times.

Which results are given for CC(C)(C)c1cc(C(=O)OC2O[C@H](CO)[C@@H](O)[C@H](O)[C@H]2O)cc(C(C)(C)C)c1O (stereo partly drawn) [RDW031]?
pH ([2]; Test no 3): pH = 5.9; effect on polio virus (naked-virus) [6]: no effect; active concentration, starting [7]: ≥ 0.0625%; Reduction expressed in log ([7]; 0.00125 mg/ml (1/1000), contact time 120 min): 0.31 log; Reduction expressed in log ([7]; 0.00250 mg/ml (1/500), contact time 60 min): 1.06 log; Reduction expressed in log ([7]; 0.00250 mg/ml (1/500), contact time 120 min): 1.15 log; Reduction expressed in log ([7]; 0.00625 mg/ml (1/200), contact time 60 min): 1.06 log; Reduction expressed in log ([7]; 0.02500 mg/ml (1/50), contact time 30 min): 0.31 log; Reduction expressed in log ([7]; 0.06250 mg/ml (1/20), contact time 30 min): 0.21 log; Reduction expressed in log ([7]; 0.25000 mg/ml (⅕), contact time 15 min): 0.00 log; Reduction expressed in log ([7]; 0.62500 mg/ml (½), contact time 15 min): 3.68 log; active concentration expressed ([7]; converted from % concentration): ≥ 0.0015 mol; Decrease expressed in log ([7]; 0.17028 mg/ml (⅕), contact time 15 min): 0.00 log; Decrease expressed in log ([7]; 0.17028 mg/ml (⅕), contact time 30 min): 0.00 log; Decrease expressed in log ([7]; 0.17028 mg/ml (⅕), contact time 60 min): 0.00 log; Decrease expressed in log ([7]; 0.17028 mg/ml (⅕), contact time 120 min): 0.00 log; Decrease expressed in log ([7]; 0.42570 mg/ml (½), contact time 60 min): 0.00 log; Decrease expressed in log ([7]; 0.42570 mg/ml (½), contact time 120 min): 1.48 log; Decrease expressed in log ([7]; 0.85140 mg/ml (pur), contact time 15 min): 1.25 log; Decrease expressed in log ([7]; 0.85140 mg/ml (pur), contact time 30 min): 1.86 log; Decrease expressed in log ([7]; 0.85140 mg/ml (pur), contact time 60 min): 2.15 log; Decrease expressed in log ([7]; 0.85140 mg/ml (pur), contact time 120 min): 2.32 log; solubility at 0.5 h ([8]; 23 °C): 40 µg/mL (≈ 97 µM); solubility at 12 h ([8]; 23 °C): 1200 µg/mL (≈ 2910 µM); solubility at 0.5 h ([8]; 100 °C): 1080 µg/mL (≈ 2620 µM); effects on progeny and mutagenic effect [9]: never shown any detectable effects; reduction of the virulence of a HIV culture [4]: 5 log
